Reference: patent US20250051333A1, “POLYMORPH OF KRAS INHIBITOR, PREPARATION METHOD THEREFOR, AND USE THEREOF” (GENFLEET THERAPEUTICS (SHANGHAI) INC., priority 2021, published 2025)

What was measured:
Assay type in all cases: physicochemical
[1] = Humidity induction test: standing at various humidities at room temperature; settings: for Polymorphic transition or not: room temperature, open
Description: Some of the crystalline forms prepared in the above examples were investigated in a humidity induction test at room temperature.

[2] = Hygroscopicity by DVS testing
Description: The dynamic vapor sorption (DVS) analysis may be conducted on the DVS Intrinsic system from Surface Measurement Systems (SMS). Temperature: 25° C.: sample amount: 20-40 mg; protective gas and flow rate: N2, 200 mL/min; dm/dt: 0.002%/min; minimum dm/dt equilibration time: 10 min, maximum equilibration time. 180 min; RH range: room humidity to 95% RH to 0% RH to 95% RH: 0% RH to 95% RH to 0% RH; RH gradient: 10% RH (0% RH to 90% RH & 90% RH to 0% RH): 5% RH (90% RH to 95% RH & 95% RH to 90% RH).

[3] = Solid stability, 60° C. sealed 24 hours and 40° C./75% RH open one week (XRPD, HPLC, KF); settings: for Purity (%): HPLC; for Water content (%): KF test; for Polymorphic transition or not: XRPD; for Relative to the initial (%): purity
Description: Proton nuclear magnetic resonance may be conducted on the Bruker 400M nuclear magnetic resonance spectrometer, with deuterated chloroform, deuterated methanol, or dimethyl sulfoxide-d6 as the solvent. Water titration (KF test) may be conducted on the Metrohm 870 KF Titrinoplus from Sigma-Aldrich, with ultrapure water for calibration and Hydranal® R-Composite 5 as the titration reagent. HPLC-grade methanol was used to dissolve the solid sample.
High-performance liquid chromatography (HPLC) may be conducted on the Agilent 1260 high-performance liquid chromatograph system (Waters Xbridge C18, 150×4.6 mm, 5 μm column).
In order to further evaluate the solid stability of the crystalline forms of the present invention, appropriate amounts of samples were for at 60° C. in a sealed condition for 24 hours and at 40° C./75% RH open to the atmosphere for a week.

[4] = Solid stability, 60° C./75% RH open, physical stability by XRPD; settings: for Crystalline form: XRPD
Description: Appropriate amounts of samples were weighed and let stand at 60° C./75% RH open to the atmosphere for 7 days, 14 days, and 1 month. Samples of different standing times were evaluated for the physical stability of the crystalline forms by XRPD.

[5] = Variable-temperature XRPD / heating test of crystalline forms; settings: heating to 150° C. and cooling to 30° C. in a N2 atmosphere
Description: The X-ray powder diffraction (XRPD) analysis may be conducted on the X'Pert3 X-ray powder diffraction analyzer with the following parameters: Cu, kα; Kα1 (Å): 1.540598: Kα2 (Å): 1.544426; Kα2/Kα1 intensity ratio: 0.50; voltage: 45 kV; current: 40 mA; divergent slit: ⅛°; scan mode: continuous: scanning range: 3° to 40°: scanning step: 0.0263°; time of step: 46.665 s: scanning time: 5 min 03 s. Alternatively, the analysis may be conducted on the PANalytical Empyrean X-ray powder diffraction analyzer with the following parameters: Cu, kα; Kα1 (Å): 1.540598: Kα2 (Å); 1.544426: Kα2/Kα1 intensity ratio: 0.50: voltage: 45 kV; current; 40 mA: divergent slit: automatic; scan mode: continuous; scanning range: 3° to 40°; scanning step: 0.0167°; time of step: 17.780 s/33.020 s; scanning time: 5 min 32 s/10 min 13 s.

[6] = 60° C. sealed 24 hours and 40° C./75% RH open one week

C=CC(=O)N1CCN2c3c(c(=O)n(-c4c(C)ccnc4C(C)C)c4nc(-c5c(O)cccc5F)c(Cl)cc34)N(C)C(=O)[C@H]2C1 [Crystalline form 3, (4aR,8R)-3-acryloyl-11-chloro-10-(2-fluoro-6-hydroxyphenyl)-8-(2-isopropyl-4-methylpyridin-3-yl)-6-methyl-2,3,4,4a,6,8-hexahydro-1H-pyrazino[1′,2′:4,5]pyrazino[2,3-c][1,8]naphthyridine-5,7-dione]
Polymorphic transition or not ([1]; 22.5% RH (saturated potassium acetate), 10 days): No | Polymorphic transition or not ([1]; 22.5% RH (saturated potassium acetate), 23 days): No | Polymorphic transition or not ([1]; 22.5% RH (saturated potassium acetate), 30 days): No | Polymorphic transition or not ([1]; 43.2% RH (saturated potassium carbonate), 10 days): No | Polymorphic transition or not ([1]; 43.2% RH (saturated potassium carbonate), 23 days): No | Polymorphic transition or not ([1]; 43.2% RH (saturated potassium carbonate), 30 days): No | Polymorphic transition or not ([1]; 60% RH (stability chamber), 10 days): No | Polymorphic transition or not ([1]; 60% RH (stability chamber), 23 days): No | Polymorphic transition or not ([1]; 60% RH (stability chamber), 30 days): No | Polymorphic transition or not ([1]; 84.2% RH (saturated potassium chloride), 10 days): No | Polymorphic transition or not ([1]; 84.2% RH (saturated potassium chloride), 23 days): No | Polymorphic transition or not ([1]; 84.2% RH (saturated potassium chloride), 30 days): No | Polymorphic transition ([1]; 30 days open to the atmosphere at room temperature at 22.5% RH to 84.2% RH): neither crystalline form 6 (Example 12) nor crystalline form 3 (Example 3) exhibited polymorphic transition | Weight gain (DVS) ([2]; 25° C./80% RH): less than 0.9% | Hygroscopicity (in words) ([2]; DVS at 25° C., 0% RH to 95% RH): almost no hygroscopicity | Crystalline form after DVS testing (XRPD) ([2]; after DVS testing): did not change | Purity (%) ([3]; 40° C./75% RH/open, 1 week): 99.27% | Water content (%) ([3]; 40° C./75% RH/open, 1 week): 1.3% | Polymorphic transition or not ([3]; 40° C./75% RH/open, 1 week): No | HPLC purity change [3, 6]: no significant decrease in HPLC purity | Polymorphic transition [3, 6]: no polymorphic transition | Purity (%) ([3]; 60° C./sealed, 1 day): 99.27% | Water content (%) ([3]; 60° C./sealed, 1 day): 1.1% | Polymorphic transition or not ([3]; 60° C./sealed, 1 day): No | Purity (%) ([3]; Initial): 99.33% | Water content (%) ([3]; Initial): 0.9% | Relative to the initial (%) ([3]; 40° C./75% RH/open, 1 week): 99.94% | Relative to the initial (%) ([3]; 60° C./sealed, 1 day): 99.94% | Crystalline form ([4]; 60° C./75% RH (open), 1 month): Crystalline form 3 | Crystalline form ([4]; 60° C./75% RH (open), 7 days): Crystalline form 3 | Crystalline form ([4]; 60° C./75% RH (open), 14 days): Crystalline form 3 | Polymorphic transition ([4]; 60° C./75% RH open, up to 1 month): no transition | Crystalline form ([4]; Initial, 0 days): Crystalline form 3 | Crystalline form change on heating (variable-temperature XRPD) [5]: no crystalline form changes were observed
